Assay results from patent US11174250B2, “Substituted carboxamides as inhibitors of WDR5 protein-protein binding” (PROPELLON THERAPEUTICS INC., priority 2016, dated 2021).
Read-outs that look alike come from different tables or passages of the source.

Molecular target: WDR5 protein (Homo sapiens (Human), UniProt P61964)
Experiment: Surface Plasmon Resonance (SPR) assay
Format: binding
Conditions: SPR; for residence time: τ=1/koff, read-out: Residence Time (t, min)
[1] = Table 1, read-out: WDR5 binding affinity (KD)
[2] = Table 2, read-out: WDR5 binding affinity SPR (KD)

Protocol: Exemplary compounds of the application were dissolved in 100% DMSO at 10 mM, assayed fresh, and then stored at −20° C. for repeat studies and other experiments. Full length WDR5 with an N-terminal His tag and C-terminal AviTag (Avidity Inc.) was expressed in E. coli with coexpression of BirA to biotin label the protein in vivo. Purification was via Ni-NTA. The purified WDR5 protein has a molecular weight of 41976 Da.
SPR studies were performed using a Biacore™ T200 instrument (GE Health Sciences Inc.). Biotinylated WDR5 protein (approximately 3000RU) was stably captured to streptavidin coupled SA chips according to the manufacture's protocol (GE Health Sciences Inc.). The running buffer used was HBS-EP (20 mM Hepes pH 7.4, 150 mM NaCl, 3 mM EDTA, 0.05% P-20) plus 5% DMSO with a flow rate of 40p1/min. For SPR analysis, 5 different concentrations of each exemplary compound of the application were sprayed into 96 or 384 well plates using an HP D300 digital dispenser. […] Curve fitting and KD calculations were performed with the Biacore T200 Evaluation software (GE Health Sciences Inc).

CN1CCN(c2ccc(-c3cc(CN4CCOCC4)ccc3F)cc2NC(=O)c2c[nH]c(=O)cc2C(F)(F)F)CC1COC(=O)C(C)(C)C (stereo not shown) [Example 64, (4-(2′-fluoro-5′-(morpholinomethyl)-3-(6-oxo-4-(trifluoromethyl)-1,6-dihydropyridine-3-carboxamido)-[1,1′-biphenyl]-4-yl)-1-methylpiperazin-2-yl)methyl pivalate]
Kd [1]: > 200 nM
Kd [2]: 102 nM

CN1CCN(c2ccc(-c3cccc(CN4CCOCC4)c3F)cc2NC(=O)c2c[nH]c(=O)cc2C(F)(F)F)CC1 [Example 23, N-(2′-fluoro-4-(4-methylpiperazin-1-yl)-3′-(morpholinomethyl)-[1,1′-biphenyl]-3-yl)-6-oxo-4-(trifluoromethyl)-1,6-dihydropyridine-3-carboxamide]
Kd [1]: 79 nM
Kd [2]: 79 nM
residence time: 0.56 min

COc1cc(C(F)(F)F)c(C(=O)Nc2cc(-c3cc(CN4CCC(C(C)C)C4)ccc3F)ccc2N2CCN(C)CC2)cn1 (stereo in doubt) [Example 53, (R)—N-(2′-fluoro-5′-((3-isopropylpyrrolidin-1-yl)methyl)-4-(4-methylpiperazin-1-yl)-[1,1′-biphenyl]-3-yl)-6-methoxy-4-(trifluoromethyl)nicotinamide]
Kd [1]: > 200 nM
Kd [2]: > 200 nM

CN1CCN(c2ccc(-c3cc(C(N)=O)c(O)cc3F)cc2NC(=O)c2c[nH]c(=O)cc2C(F)(F)F)CC1 [Example 4, N-(5′-carbamoyl-2′-fluoro-4′-hydroxy-4-(4-methylpiperazin-1-yl)-[1,1′-biphenyl]-3-yl)-6-oxo-4-(trifluoromethyl)-1,6-dihydropyridine-3-carboxamide]
Kd [1]: 86 nM
Kd [2]: 86 nM
residence time: 0.88 min

CN1CCN(c2ccc(-c3cc(CNC4CC4)ccc3F)cc2NC(=O)c2c[nH]c(=O)cc2C(F)(F)F)CC1 [Example 17, N-(5′-((cyclopropylamino)methyl)-2′-fluoro-4-(4-methylpiperazin-1-yl)-[1,1′-biphenyl]-3-yl)-6-oxo-4-(trifluoromethyl)-1,6-dihydropyridine-3-carboxamide]
Kd [1]: 14 nM
Kd [2]: 14 nM
residence time: 4.25 min

C[C@@H]1CN(c2ccc(-c3c(F)cc(CNC4CCCCC4)cc3F)cc2NC(=O)c2c[nH]c(=O)cc2C(F)(F)F)C[C@H](C)N1C [Example 115, N-(4′-((cyclohexylamino)methyl)-2′,6′-difluoro-4-((3S,5R)-3,4,5-trimethylpiperazin-1-yl)-[1,1′-biphenyl]-3-yl)-6-oxo-4-(trifluoromethyl)-1,6-dihydropyridine-3-carboxamide]
Kd [1]: 55 nM
Kd [2]: 55 nM
residence time: 1.5 min

COc1cc(C(F)(F)F)c(C(=O)Nc2cc(-c3cc(CN4CCOC(C)(C)C4)ccc3F)ccc2N2CCN(C)CC2)cn1 [Example 59, N-(5′-((2,2-dimethylmorpholino)methyl)-2′-fluoro-4-(4-methylpiperazin-1-yl)-[1,1′-biphenyl]-3-yl)-6-methoxy-4-(trifluoromethyl)nicotinamide]
Kd [1]: > 200 nM
Kd [2]: > 200 nM

Cc1cc(C(=O)Nc2cc(-c3cc(CN4CCOCC4)ccc3F)ccc2N2CCN(CC(F)(F)F)CC2)cc(C)c1F [Example 95, 4-fluoro-N-(2′-fluoro-5′-(morpholinomethyl)-4-(4-(2,2,2-trifluoroethyl)piperazin-1-yl)-[,1′-biphenyl]-3-yl)-3,5-dimethylbenzamide]
Kd [1]: > 200 nM
Kd [2]: > 200 nM

Cc1cc(C(=O)Nc2cc(-c3cc(CN4CCOCC4)ccc3F)ccc2N2CC3CN(C)CC3C2)cc(C)c1F (stereo not shown) [Example 94, 4-fluoro-N-(2′-fluoro-4-(5-methylhexahydropyrrolo[3,4-c]pyrrol-2(1H)-yl)-5′-(morpholinomethyl)-[1,1′-biphenyl]-3-yl)-3,5-dimethylbenzamide]
Kd [1]: > 200 nM
Kd [2]: > 200 nM
